According to ChEMBL document CHEMBL1158104, “Mooloolabenes A-E, norsesterterpenes from the Australian sponge Hyattella intestinalis” (J Nat Prod, 2006):
In brackets after ≈: the same amount, converted by molar mass.

Each compound was assayed on P388 (assay: Cytotoxicity against mouse P388 cells).
Assay type: functional, cell-based
Work on `CC1(C)CCC[C@]2(C)[C@H]3CC[C@]4(C)[C@@H](C=O)C(C=O)=CC[C@H]4C3=CC[C@@H]12` [MOOLOOLABENE A] yielded an IC50 of 0.8 µg/mL (≈ 2.26 µM).
With `CC1(C)CCC[C@]2(C)[C@H]3CC[C@]4(C)[C@H](C=O)C(C=O)=CC[C@H]4C3=CC[C@@H]12` [MOOLOOLABENE B] the IC50 was 1.2 µg/mL (≈ 3.38 µM).
For `CC(=O)OC[C@@]1(C)CCC[C@]2(C)[C@H]3CC[C@]4(C)[C@@H](C=O)C(C=O)=CC[C@H]4C3=CC[C@@H]12` [MOOLOOLABENE C], the IC50 was 3 µg/mL (≈ 7.27 µM).
`CC(=O)O[C@@H]1OCC2=CC[C@H]3C4=C[C@@H](OC(C)=O)[C@H]5C(C)(C)CCC[C@]5(C)[C@H]4CC[C@]3(C)[C@H]21` [MOOLOOLABENE D] was tested, and the IC50 was 3 µg/mL (≈ 6.57 µM).
In the case of `CC(=O)O[C@@H]1OCC2=CC[C@H]3C4=CC[C@H]5C(C)(C)CCC[C@]5(C)[C@H]4CC[C@]3(C)[C@H]21` [MOOLOOLABENE E], the IC50 is reported as 3 µg/mL (≈ 7.53 µM).
`CC(=O)O[C@@H]1OC=C2CC[C@@H]3[C@](C)(CC[C@@H]4[C@@]5(C)CCCC(C)(C)[C@@H]5CC[C@@]34C=O)[C@H]21` [MOOLOOLALDEHYDE] was tested, and the IC50 was 3 µg/mL (≈ 7 µM).
